# Assay results reported in ChEMBL document CHEMBL1201861, “Genomics of Drug Sensitity in Cancer screening data, Wellcome Trust Sanger Institute”.
# What was measured:
# Type in all cases: functional, cell-based
# NCI-H1048 = experiment: cells; settings: Homo sapiens;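 also: growth inhibition of human NCI-H1048 cells, read out with a cell viability assay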
# Description: SANGER: Inhibition of human NCI-H1048 cell growth in a cell viability assay.
# TI-73 = experiment: cells; settings: Homo sapiens;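 also: cell viability assay measuring how much compounds suppress growth of the cultured cell line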
# Description: SANGER: Inhibition of human TI-73 cell growth in a cell viability assay.
# SW 1116 = experiment: cells; settings: Homo sapiens;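 also: growth inhibition of SW1116 cells, read out with a cell viability assay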
# Description: SANGER: Inhibition of human SW1116 cell growth in a cell viability assay.
# A549 = experiment: cells; settings: Homo sapiens;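 also: growth inhibition of A549 cells, read out with a cell viability assay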
# Description: SANGER: Inhibition of human A549 cell growth in a cell viability assay.
# CFPAC-1 = experiment: cells; settings: Homo sapiens;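 also: cell viability readout used to gauge suppression of CFPAC-1 cell proliferation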
# Description: SANGER: Inhibition of human CFPAC-1 cell growth in a cell viability assay.
# BT-549 = experiment: cells; settings: Homo sapiens
# Description: SANGER: Inhibition of human BT-549 cell growth in a cell viability assay.
# RH-18 = experiment: cells; settings: Homo sapiens, Rh18;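 also: growth inhibition of human RH-18 cells, read out with a cell viability assay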
# Description: SANGER: Inhibition of human RH-18 cell growth in a cell viability assay.
# TGBC11TKB = experiment: cells; settings: Homo sapiens;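 also: growth inhibition of human TGBC11TKB cells, measured by a cell viability assay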
# Description: SANGER: Inhibition of human TGBC11TKB cell growth in a cell viability assay.
# BALL-1 = experiment: cells; settings: Homo sapiens;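 also: growth inhibition of BALL-1 cells, read out with a cell viability assay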
# Description: SANGER: Inhibition of human BALL-1 cell growth in a cell viability assay.
# D-423MG = experiment: cells; settings: Homo sapiens
# Description: SANGER: Inhibition of human D-423MG cell growth in a cell viability assay.
# H-EMC-SS = experiment: cells; settings: Homo sapiens
# Description: SANGER: Inhibition of human H-EMC-SS cell growth in a cell viability assay.
# H9 = experiment: cells; settings: Homo sapiens
# Description: SANGER: Inhibition of human H9 cell growth in a cell viability assay.
# ZR-75-30 = experiment: cells; settings: Homo sapiens;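 also: growth inhibition of ZR-75-30 cells, measured with a cell viability readout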
# Description: SANGER: Inhibition of human ZR-75-30 cell growth in a cell viability assay.
# EPLC-272H = experiment: cells; settings: Homo sapiens
# Description: SANGER: Inhibition of human EPLC-272H cell growth in a cell viability assay.
# OC-314 = experiment: cells; settings: Homo sapiens
# Description: SANGER: Inhibition of human OC-314 cell growth in a cell viability assay.
# CHP-134 = experiment: SANGER: Inhibition of human CHP-134 cell growth in a cell viability assay.
# NCI-H2029 = experiment: cells; settings: Homo sapiens;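 also: Read-out is a viability assay on the cultured cells, and IC50 is the concentration that suppresses cell growth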
# Description: SANGER: Inhibition of human NCI-H2029 cell growth in a cell viability assay.
# NCI-H2291 = experiment: cells; settings: Homo sapiens
# Description: SANGER: Inhibition of human NCI-H2291 cell growth in a cell viability assay.
# LU-135 = experiment: cells; settings: Homo sapiens
# Description: SANGER: Inhibition of human LU-135 cell growth in a cell viability assay.
# KNS-62 = experiment: cells; settings: Homo sapiens;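 also: inhibition of cell growth, read out with a cell viability assay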
# Description: SANGER: Inhibition of human KNS-62 cell growth in a cell viability assay.
# IPC-298 = experiment: SANGER: Inhibition of human IPC-298 cell growth in a cell viability assay.
# MES-SA = experiment: cells; settings: Homo sapiens;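 also: growth inhibition of human MES-SA cells, read out with a cell viability assay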
# Description: SANGER: Inhibition of human MES-SA cell growth in a cell viability assay.
# COLO 205 = experiment: cells; settings: Homo sapiens
# Description: SANGER: Inhibition of human COLO-205 cell growth in a cell viability assay.
# MDA-MB-468 = experiment: cells; settings: Homo sapiens
# Description: SANGER: Inhibition of human MDA-MB-468 cell growth in a cell viability assay.
# Calu-1 = experiment: SANGER: Inhibition of human Calu-1 cell growth in a cell viability assay.
# CCF-STTG1 = experiment: cells; settings: Homo sapiens;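 also: growth inhibition of human CCF-STTG1 cells, determined with a cell viability read-out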
# Description: SANGER: Inhibition of human CCF-STTG1 cell growth in a cell viability assay.
# RT-4 = experiment: SANGER: Inhibition of human RT4 cell growth in a cell viability assay.
# C-4-II = experiment: SANGER: Inhibition of human C-4-II cell growth in a cell viability assay.
# SNU-475 = experiment: cells; settings: Homo sapiens
# Description: SANGER: Inhibition of human SNU-475 cell growth in a cell viability assay.
# SK-CO-1 = experiment: cells; settings: Homo sapiens;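 also: growth inhibition of SK-CO-1 cells, determined by a viability readout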
# Description: SANGER: Inhibition of human SK-CO-1 cell growth in a cell viability assay.
# PLC-PRF-5 = experiment: cells; settings: Homo sapiens;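 also: growth inhibition of human PLC-PRF-5 cells, read out with a viability assay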
# Description: SANGER: Inhibition of human PLC-PRF-5 cell growth in a cell viability assay.
# SNG-M = experiment: cells; settings: Homo sapiens
# Description: SANGER: Inhibition of human SNG-M cell growth in a cell viability assay.
# NCI-H1618 = experiment: cells; settings: Homo sapiens;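 also: growth inhibition of human NCI-H1618 cells, measured by a cell viability assay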
# Description: SANGER: Inhibition of human NCI-H1618 cell growth in a cell viability assay.
# DMS-53 = experiment: cells; settings: Homo sapiens;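 also: cell viability assay measuring growth inhibition of human DMS-53 cells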
# Description: SANGER: Inhibition of human DMS-53 cell growth in a cell viability assay.
# NCI-H838 = experiment: cells; settings: Homo sapiens;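 also: growth inhibition of human NCI-H838 cells, read out by a cell viability assay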
# Description: SANGER: Inhibition of human NCI-H838 cell growth in a cell viability assay.
# NCI-H1734 = experiment: cells; settings: Homo sapiens;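 also: growth inhibition of human NCI-H1734 cells, read out with a cell viability assay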
# Description: SANGER: Inhibition of human NCI-H1734 cell growth in a cell viability assay.
# MFE-296 = experiment: SANGER: Inhibition of human MFE-296 cell growth in a cell viability assay.
# ECC12 = experiment: cells; settings: Homo sapiens
# Description: SANGER: Inhibition of human ECC12 cell growth in a cell viability assay.
# Caov-4 = experiment: cells; settings: Homo sapiens
# Description: SANGER: Inhibition of human Caov-4 cell growth in a cell viability assay.
# RL95-2 = experiment: cells; settings: Homo sapiens;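 also: RL95-2 growth inhibition determined through a cell viability readout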
# Description: SANGER: Inhibition of human RL95-2 cell growth in a cell viability assay.
# HCC1143 = experiment: cells; settings: Homo sapiens;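 also: growth inhibition of human HCC1143 cells, read out with a cell viability assay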
# Description: SANGER: Inhibition of human HCC1143 cell growth in a cell viability assay.
# EFE-184 = experiment: cells; settings: Homo sapiens
# Description: SANGER: Inhibition of human EFE-184 cell growth in a cell viability assay.
# Caov-3 cell line = experiment: cells; settings: Homo sapiens;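 also: cell growth inhibition read out by a viability assay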
# Description: SANGER: Inhibition of human Caov-3 cell growth in a cell viability assay.
# SW900 = experiment: cells; settings: Homo sapiens;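 also: IC50 is the concentration that inhibits SW900 cell growth, measured by a cell viability assay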
# Description: SANGER: Inhibition of human SW900 cell growth in a cell viability assay.
# NCI-H1975 = experiment: cells; settings: Homo sapiens
# Description: SANGER: Inhibition of human NCI-H1975 cell growth in a cell viability assay.
# NCI-H1666 = experiment: cells; settings: Homo sapiens;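 also: growth inhibition of the cell line, read out with a cell viability assay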
# Description: SANGER: Inhibition of human NCI-H1666 cell growth in a cell viability assay.
# EW-12 = experiment: SANGER: Inhibition of human EW-12 cell growth in a cell viability assay.
# SKM-1 = experiment: SANGER: Inhibition of human SKM-1 cell growth in a cell viability assay.
# NCI-H2107 = experiment: SANGER: Inhibition of human NCI-H2107 cell growth in a cell viability assay.
# CRO-AP2 = experiment: SANGER: Inhibition of human CRO-AP2 cell growth in a cell viability assay.
# NCI-H128 = experiment: SANGER: Inhibition of human NCI-H128 cell growth in a cell viability assay.
smiles,measurement,setting,value
CC(=O)c1c(C)c2cnc(Nc3ccc(N4CCNCC4)cn3)nc2n(C2CCCC2)c1=O [PALBOCICLIB],IC50,NCI-H1048,> 4 µM
same,IC50,TI-73,> 4 µM
same,IC50,SW 1116,> 4 µM
same,IC50,A549,1.29 µM
same,IC50,CFPAC-1,> 4 µM
same,IC50,BT-549,> 4 µM
same,IC50,RH-18,> 4 µM
same,IC50,TGBC11TKB,> 4 µM
same,IC50,BALL-1,> 4 µM
same,IC50,D-423MG,> 4 µM
same,IC50,H-EMC-SS,> 4 µM
same,IC50,H9,0.495 µM
same,IC50,ZR-75-30,> 4 µM
same,IC50,EPLC-272H,> 4 µM
same,IC50,OC-314,> 4 µM
same,IC50,CHP-134,1.12 µM
same,IC50,NCI-H2029,> 4 µM
same,IC50,NCI-H2291,> 4 µM
same,IC50,LU-135,> 4 µM
same,IC50,KNS-62,> 4 µM
CC(C)=CC[C@@H](O)C1=CC(=O)c2c(O)ccc(O)c2C1=O [SHIKONIN],IC50,IPC-298,> 16 µM
same,IC50,MES-SA,0.0413 µM
same,IC50,COLO 205,0.538 µM
same,IC50,MDA-MB-468,0.967 µM
same,IC50,Calu-1,1.23 µM
same,IC50,CCF-STTG1,0.768 µM
same,IC50,RT-4,10.1 µM
same,IC50,C-4-II,0.588 µM
same,IC50,SNU-475,14.1 µM
same,IC50,SK-CO-1,2.05 µM
same,IC50,PLC-PRF-5,1.82 µM
same,IC50,SNG-M,0.272 µM
same,IC50,NCI-H1618,2.02 µM
same,IC50,DMS-53,> 16 µM
same,IC50,NCI-H838,> 16 µM
same,IC50,NCI-H1734,6.9 µM
same,IC50,MFE-296,0.662 µM
same,IC50,ECC12,9.65 µM
same,IC50,Caov-4,1.88 µM
same,IC50,RL95-2,0.72 µM
same,IC50,HCC1143,0.53 µM
same,IC50,EFE-184,0.544 µM
same,IC50,Caov-3 cell line,0.767 µM
NC(=O)c1ncn([C@@H]2O[C@H](COP(=O)(O)O)[C@@H](O)[C@H]2O)c1N,IC50,NCI-H1048,> 2000 µM
same,IC50,TI-73,724 µM
same,IC50,SW 1116,> 2000 µM
same,IC50,A549,> 2000 µM
same,IC50,CFPAC-1,1120 µM
same,IC50,SW900,> 2000 µM
same,IC50,BT-549,807 µM
same,IC50,RH-18,> 2000 µM
same,IC50,TGBC11TKB,> 2000 µM
same,IC50,BALL-1,> 2000 µM
same,IC50,D-423MG,> 2000 µM
same,IC50,ZR-75-30,> 2000 µM
same,IC50,EPLC-272H,569 µM
same,IC50,NCI-H1975,1070 µM
same,IC50,NCI-H2291,> 2000 µM
same,IC50,LU-135,> 2000 µM
same,IC50,NCI-H1666,> 2000 µM
same,IC50,KNS-62,996 µM
CCn1c(-c2nonc2N)nc2cnc(Oc3cccc(NC(=O)c4ccc(OCCN5CCOCC5)cc4)c3)cc21 [GSK-269962A],IC50,EW-12,> 2.5 µM
same,IC50,SKM-1,> 2.5 µM
same,IC50,NCI-H2107,> 2.5 µM
same,IC50,CRO-AP2,2.36 µM
same,IC50,ECC12,> 2.5 µM
same,IC50,RL95-2,> 2.5 µM
same,IC50,NCI-H128,> 2.5 µM
Cc1ccc(NC(=O)c2cccc(C(C)(C)C#N)c2)cc1Nc1ccc2ncn(C)c(=O)c2c1,IC50,EW-12,> 4 µM
same,IC50,SKM-1,> 4 µM
same,IC50,CRO-AP2,> 4 µM
same,IC50,ECC12,1.71 µM
same,IC50,RL95-2,> 4 µM
same,IC50,NCI-H128,> 4 µM
C[C@]12O[C@H](C[C@]1(O)CO)n1c3ccccc3c3c4c(c5c6ccccc6n2c5c31)CNC4=O [LESTAURTINIB],IC50,NCI-H1048,0.141 µM
same,IC50,TI-73,0.235 µM
same,IC50,SW 1116,> 2 µM
same,IC50,A549,0.194 µM
same,IC50,CFPAC-1,> 2 µM
same,IC50,SW900,1.41 µM
same,IC50,BT-549,0.163 µM
same,IC50,RH-18,> 2 µM
same,IC50,TGBC11TKB,1.41 µM
same,IC50,BALL-1,> 2 µM
same,IC50,D-423MG,0.571 µM
same,IC50,H-EMC-SS,0.425 µM
same,IC50,H9,0.0348 µM
same,IC50,ZR-75-30,> 2 µM
same,IC50,EPLC-272H,0.154 µM
same,IC50,OC-314,1.84 µM
same,IC50,NCI-H2029,> 2 µM
same,IC50,NCI-H1975,1.25 µM
same,IC50,NCI-H2291,1.8 µM
same,IC50,LU-135,> 2 µM
same,IC50,NCI-H1666,1.89 µM
same,IC50,KNS-62,> 2 µM
